The subject of test [1] is TS-exposed mice (C57BL/6J), pulmonary inflammation. Nature of the test: Tobacco smoke model, cells recovered in bronchoalveolar lavage. It counts as in vivo, mouse. As to the method:
The response consisted of significant increases in the numbers of macrophages, epithelial cells, neutrophils and lymphocytes recovered in BAL.
Vehicle (PBS), MOR12743 and MOR03207 were administered i.p., 1 h prior to TS-exposure on days 1, 4, 7 and 10 of the study. Roflumilast was administered p.o., 1 h prior to each TS-exposure.
In this exposure protocol, mice were exposed in groups of 5 in clear polycarbonate chambers (27 cm×16 cm×12 cm). The TS from ‘Marlboro 100’ cigarettes was allowed to enter the exposure chambers at a flow rate of 100 mL/min. In order to minimise any potential problems caused by repeated exposure to a high level of TS, the exposure period to TS was increased initially from 25 minutes at the start of the study (day 1) to a maximum of 45 minutes on day 3. The exposure schedule used in this study was as follows:
The trachea was cannulated using a 10 mm long Luer fitting stainless steel cannula. Phosphate buffered saline (PBS) was used as the lavage fluid. A volume of 0.4 mL was gently instilled and withdrawn 3 times using a 1 mL syringe and then placed in an Eppendorf tube and kept on ice prior to subsequent determinations.
Lavage fluid was separated from cells by centrifugation (6 min at 3400 rpm, RCF=3070×g—‘Eppendorf Mini Spin’) and the supernatant decanted and frozen for possible subsequent analysis. The cell pellet was re-suspended in a known volume of PBS and total cell numbers calculated by counting a stained (Turks stain) aliquot under a microscope using a haemocytometer.
The residual cell pellet was diluted to approximately 10^5 cells per mL. A volume of 500 μl was placed in the funnel of a cytospin slide and centrifuged for 8 min at 800 rpm, RCF=72.26×g (Shandon Cytospin 3). The slide was air-dried and stained using Wrights/Giemsa stain as per the proprietary instructions. When dried and cover-slipped, differential cell-counts were performed using light microscopy. Approximately 400 cells were counted for each slide. Cells were identified using standard morphometric techniques.
In this study, 4 groups of mice were subjected to daily TS-exposure for 11 days and were sacrificed on the 12th day, 24 h after the final TS-exposure. Three groups received either vehicle (D-PBS), MOR12743 or MOR03207, i.p., 1 h prior to TS-exposure on days 1, 4, 7 and 10 of the study. One group received Roflumilast, p.o., 1 h prior to each TS-exposure. A further group was exposed to air for 11 consecutive days and sacrificed on the 12th day, 24 h after the final air-exposure. This group received vehicle (D-PBS), i.p., 1 h prior to exposure on days 1, 4, 7 and 10 of the study. For all groups n=10.
All mice were killed on day 12, by intra-peritoneal barbiturate anaesthetic overdose, 24 h after final exposure to air or TS. A blood sample was taken over heparin from the sub-clavian vein and the plasma separated by centrifugation and stored at −40° C. A BAL was performed using 0.4 mL of phosphate buffered saline (PBS). Cells recovered from the BAL were used for the total cell and differential cell counts. The BAL supernatants and remaining cell pellet were stored at −40° C. and −80° C. respectively for possible future analysis. Following BAL, the cannula was left tied in place. The heart and lungs were removed after gently opening the thorax and cutting down either side of the sternum and ribs. The left lobe was tied off, removed, snap-frozen and stored at −80° C. The right lobe was inflated with 10% phosphate buffered formalin (PBF) to a pressure of 18 cm of PBF for 20 minutes. The trachea was then ligated below the cannula and the cannula removed. The heart, lung & trachea were immersed in PBF.
The data were therefore initially subjected to a one-way analysis of variance test (ANOVA), followed by a Bonferroni correction for multiple comparisons in order to test for statistically significant differences between treatment groups. A “p” value of <0.05 was considered to be statistically significant. […]

A further test addresses T1, mouse IL17C (Mus musculus, UniProt Q8K4C5).
T1 construct: purchased R&D Systems 2306-ML/CF
T1 sequence (Q8K4C5 17-194): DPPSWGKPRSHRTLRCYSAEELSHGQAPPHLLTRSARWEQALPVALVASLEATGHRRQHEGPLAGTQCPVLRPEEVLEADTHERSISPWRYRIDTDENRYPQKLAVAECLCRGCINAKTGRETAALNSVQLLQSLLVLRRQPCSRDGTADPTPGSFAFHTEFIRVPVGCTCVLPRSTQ
Nature of the test: ELISA titration on mouse IL17C (EC50 determination). It counts as binding. As to the method: All purified chimeric human-mouse chimeric IgG2a antibodies were titrated on mouse IL17C for EC50 determination in ELISA starting with a concentration of 100 nM. EC50 values on mouse IL17C were determined in 1 to 3 independent experiments.

As for `O=C(Nc1c(Cl)cncc1Cl)c1ccc(OC(F)F)c(OCC2CC2)c1` [Roflumilast, reference compound], in test [1] (5 mg/kg p.o. q.d.), the “Inhibition of epithelial cells in BAL” value was 50%, the “Inhibition of lymphocytes in BAL” value is on record as 54%, the “Inhibition of macrophages in BAL” value came to 13% and the “Inhibition of neutrophils in BAL” value was 56%. The “Inhibition of total cells in BAL” value in test [1] (5 mg/kg p.o. q.d., 1 h prior to each TS-exposure) was 32%. In addition, the “inhibition of total cell numbers recovered in the BAL (in words)” value in test [1] (5 mg/kg p.o., 1 h prior to each TS-exposure) is “significantly inhibited”.

B1: MOR12758: anti-mouse IL17C HuCAL antibody; CDRs SEQ ID NO: 131-136, VL 137, VH 138 (antibody, V domains shown)
VH: EVQLVQSGAEVKKPGESLKISCKGSGYSFTDYWISWVRQMPGKGLEWMGAIDPTDSYTRYSPSFQGQVTISADKSISTAYLQWSSLKASDTAMYYCARWYTSHPYYEGRYPMDVWGQGTLVTVSS
VL: DIALTQPASVSGSPGQSITISCTGTSSDVGHYNYVSWYQQHPGKAPKLMIYGVTKRPSGVSNRFSGSKSGNTASLTISGLQAEDEADYYCASADEWPTLHVFGGGTKLTVLGQ
modifications: VH; VL
B1: the “binding activity with purified IgG2a” value with mouse IL17C is on record as “could not be confirmed”.

B2: MOR12756: anti-mouse IL17C HuCAL antibody; CDRs SEQ ID NO: 111-116, VL 117, VH 118 (antibody, V domains shown)
VH: QVQLQQSGPGLVKPSQTLSLTCAISGDSVSDNSVAWNWIRQSPSRGLEWLGRIYYRSKWYNDYAVSVKSRITINPDTSKNQFSLQLNSVTPEDTAVYYCAREVLLFPARSYGTGMDVWGQGTLVTVSS
VL: DIELTQPPSVSVSPGQTASITCSGDNLPSKYVHWYQQKPGQAPVLVIYDDNERPSGIPERFSGSNSGNTATLTISGTQAEDEADYYCGVADMPRQMKVFGGGTKLTVLGQ
modifications: VH; VL
In the case of B2, in the test with mouse IL17C, the “binding activity with purified IgG2a” value was “could not be confirmed”.

B3: MOR12755: anti-mouse IL17C HuCAL antibody; CDRs SEQ ID NO: 101-106, VL 107, VH 108 (antibody, V domains shown)
VH: QVQLQQSGPGLVKPSQTLSLTCAISGDSVSSNSAAWNWIRQSPSRGLEWLGKTYYRSTWSNDYAESVKSRITINPDTSKNQFSLQLNSVTPEDTAVYYCAREMDSLTRSASSIAFDYWGQGTLVTVSS
VL: DIELTQPPSVSVSPGQTASITCSGDNLREHYVHWYQQKPGQAPVLVIYDDTERPSGIPERFSGSNSGNTATLTISGTQAEDEADYYCATRDWSNVVFGGGTKLTVLGQ
modifications: VH; VL
Take B3: the “binding activity with purified IgG2a” value with mouse IL17C is “could not be confirmed”.

B4: MOR12757: anti-mouse IL17C HuCAL antibody; CDRs SEQ ID NO: 121-126, VL 127, VH 128 (antibody, V domains shown)
VH: EVQLLESGGGLVQPGGSLRLSCAASGFTFSSYAMSWVRQAPGKGLEWVSFISSGGSETFYADSVKGRFTISRDNSKNTLYLQMNSLRAEDTAVYYCARVSYIYYYSWVLFDVWGQGTLVTVSS
VL: DIQMTQSPSSLSASVGDRVTITCRASQGIGTALNWYQQKPGKAPKLLIYDVSSLQSGVPSRFSGSGSGTDFTLTISSLQPEDFATYYCQQGLFLPFTFGQGTKVEIKRT
modifications: VH; VL
For B4, the “binding activity with purified IgG2a” value in the test with mouse IL17C is reported as “could not be confirmed”.

For the origin of these results see patent US10815297B2, “Antagonists of IL17C for the treatment of inflammatory disorders” (MorphoSys AG, priority 2011, dated 2020).
